This passage reports IC50 results from publication PMC8604788 (ACS chemical biology, 2021).

The target of this assay is T1, proline utilization A (SmPutA), bifunctional PRODH-GSALDH enzyme (Sinorhizobium meliloti, UniProt F7X6I3).
T1 sequence (F7X6I3 1-1233): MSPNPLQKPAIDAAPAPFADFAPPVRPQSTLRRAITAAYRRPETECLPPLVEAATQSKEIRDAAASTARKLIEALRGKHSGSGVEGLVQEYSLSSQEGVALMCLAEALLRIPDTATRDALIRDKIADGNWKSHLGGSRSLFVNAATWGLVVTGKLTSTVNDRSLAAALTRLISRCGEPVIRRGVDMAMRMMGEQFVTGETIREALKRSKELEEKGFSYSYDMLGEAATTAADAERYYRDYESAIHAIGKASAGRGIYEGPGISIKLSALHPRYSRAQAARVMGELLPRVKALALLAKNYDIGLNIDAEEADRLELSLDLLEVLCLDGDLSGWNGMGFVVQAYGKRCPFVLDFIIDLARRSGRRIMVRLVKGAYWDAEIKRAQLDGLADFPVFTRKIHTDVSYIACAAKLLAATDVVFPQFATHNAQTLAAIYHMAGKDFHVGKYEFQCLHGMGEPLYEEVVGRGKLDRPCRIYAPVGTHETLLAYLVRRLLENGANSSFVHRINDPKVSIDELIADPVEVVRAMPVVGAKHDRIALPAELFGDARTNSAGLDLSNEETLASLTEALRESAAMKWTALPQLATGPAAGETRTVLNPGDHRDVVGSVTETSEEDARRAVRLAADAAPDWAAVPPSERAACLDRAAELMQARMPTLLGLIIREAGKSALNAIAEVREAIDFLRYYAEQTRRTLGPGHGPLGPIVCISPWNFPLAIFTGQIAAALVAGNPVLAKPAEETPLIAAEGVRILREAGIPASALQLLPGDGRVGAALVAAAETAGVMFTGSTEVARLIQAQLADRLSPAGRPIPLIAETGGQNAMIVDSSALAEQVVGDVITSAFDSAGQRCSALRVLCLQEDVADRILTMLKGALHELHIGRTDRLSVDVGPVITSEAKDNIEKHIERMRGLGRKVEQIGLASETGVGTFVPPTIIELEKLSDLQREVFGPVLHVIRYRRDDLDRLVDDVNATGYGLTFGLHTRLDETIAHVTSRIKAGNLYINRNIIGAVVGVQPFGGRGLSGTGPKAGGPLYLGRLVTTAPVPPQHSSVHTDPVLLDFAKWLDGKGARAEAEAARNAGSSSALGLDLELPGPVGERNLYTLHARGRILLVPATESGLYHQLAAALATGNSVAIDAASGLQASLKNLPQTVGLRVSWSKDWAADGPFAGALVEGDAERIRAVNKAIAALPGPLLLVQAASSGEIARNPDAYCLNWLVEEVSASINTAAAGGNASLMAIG
In words: X-ray crystal structures, noncovalent in the dark. In kind it is biochemical.

`O=C(O)C1SCCS1` [compound 4, 1,3-dithiolane-2-carboxylic acid] came in with an IC50 of 22.4 µM.

By IC50 is commonly meant the midpoint of a concentration-inhibition curve. Lower therefore signals higher potency.
